Here are results for 18 molecules from US12503438B2, “Compounds for the treatment of kinase-dependent disorders” (Exelixis, Inc., priority 2019, dated 2025).

For orientation: IC50 means the concentration needed to halve the response being measured.

In one test the target is T1, Mer (Homo sapiens, UniProt Q12866).
T1 construct: host or cells: 293A cells (Thermo Fisher #R70507)
T1 sequence (Q12866 21-999): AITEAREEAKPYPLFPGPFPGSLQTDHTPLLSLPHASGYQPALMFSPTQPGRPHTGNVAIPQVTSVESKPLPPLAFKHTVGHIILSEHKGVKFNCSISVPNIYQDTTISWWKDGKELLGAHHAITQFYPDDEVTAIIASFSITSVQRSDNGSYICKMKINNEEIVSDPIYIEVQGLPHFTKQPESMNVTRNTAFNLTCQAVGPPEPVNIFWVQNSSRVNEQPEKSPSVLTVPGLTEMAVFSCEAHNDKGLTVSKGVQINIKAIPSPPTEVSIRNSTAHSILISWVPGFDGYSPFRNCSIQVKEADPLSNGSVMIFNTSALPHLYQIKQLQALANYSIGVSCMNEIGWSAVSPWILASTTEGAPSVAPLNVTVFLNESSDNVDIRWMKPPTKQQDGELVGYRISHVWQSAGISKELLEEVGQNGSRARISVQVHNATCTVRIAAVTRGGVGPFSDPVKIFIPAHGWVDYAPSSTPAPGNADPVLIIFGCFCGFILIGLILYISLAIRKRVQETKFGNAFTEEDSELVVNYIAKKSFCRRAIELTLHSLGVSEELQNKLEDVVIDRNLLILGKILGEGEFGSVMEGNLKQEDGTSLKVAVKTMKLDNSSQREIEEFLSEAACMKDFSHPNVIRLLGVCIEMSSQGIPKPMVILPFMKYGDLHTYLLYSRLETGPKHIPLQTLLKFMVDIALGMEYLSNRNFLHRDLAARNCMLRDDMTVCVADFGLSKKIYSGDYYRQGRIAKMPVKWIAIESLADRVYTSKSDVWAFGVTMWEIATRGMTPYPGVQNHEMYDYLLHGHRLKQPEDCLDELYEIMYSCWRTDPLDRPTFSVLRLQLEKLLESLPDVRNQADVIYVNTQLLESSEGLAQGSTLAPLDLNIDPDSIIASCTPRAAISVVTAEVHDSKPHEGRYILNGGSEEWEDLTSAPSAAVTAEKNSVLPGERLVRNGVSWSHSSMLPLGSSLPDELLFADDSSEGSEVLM
Nature of the test: Mer autophosphorylation ELISA in transient transfected 293A cells. The class given is cell-based. Particulars: cellular activity; MERTK-transfected 293A cells, phospho-Mer ELISA. The method in brief:
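293A cells transiently transfected with human MERTK DNA, then treated 1 h with 8-point compound dilutions in serum-free medium (0.3% DMSO). Phospho-Mer in lysates quantified by sandwich ELISA against phospho-Mer standard; normalised to DMSO (100%) and reference inhibitor (0%), IC50 from 4-parameter logistic fit.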
On the technique in general: ELISA stands for enzyme-linked immunosorbent assay.

The next test addresses KDR (Homo sapiens, UniProt P35968). Put plainly: KDR autophosphorylation ELISA in HUVEC cells. The class given is cell-based. On the set-up: endogenous in cells; host or cells: HUVEC (Lonza #C2519A). To be noted: cellular activity, VEGF165-stimulated, phospho-KDR ELISA. In a few lines: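 Read-out: phospho-KDR ELISA on cell lysates, quantified against a phospho-KDR standard, normalised to VEGF-stimulated DMSO (100%) and unstimulated (0%) wells, IC50 by 4-parameter fit. Cells were 24 h serum-starved HUVEC given compound for 1 h, then 100 ng/mL VEGF165 for 5 min.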

Each structure is given as a SMILES string.

Chain of KDR (P35968 20-1356): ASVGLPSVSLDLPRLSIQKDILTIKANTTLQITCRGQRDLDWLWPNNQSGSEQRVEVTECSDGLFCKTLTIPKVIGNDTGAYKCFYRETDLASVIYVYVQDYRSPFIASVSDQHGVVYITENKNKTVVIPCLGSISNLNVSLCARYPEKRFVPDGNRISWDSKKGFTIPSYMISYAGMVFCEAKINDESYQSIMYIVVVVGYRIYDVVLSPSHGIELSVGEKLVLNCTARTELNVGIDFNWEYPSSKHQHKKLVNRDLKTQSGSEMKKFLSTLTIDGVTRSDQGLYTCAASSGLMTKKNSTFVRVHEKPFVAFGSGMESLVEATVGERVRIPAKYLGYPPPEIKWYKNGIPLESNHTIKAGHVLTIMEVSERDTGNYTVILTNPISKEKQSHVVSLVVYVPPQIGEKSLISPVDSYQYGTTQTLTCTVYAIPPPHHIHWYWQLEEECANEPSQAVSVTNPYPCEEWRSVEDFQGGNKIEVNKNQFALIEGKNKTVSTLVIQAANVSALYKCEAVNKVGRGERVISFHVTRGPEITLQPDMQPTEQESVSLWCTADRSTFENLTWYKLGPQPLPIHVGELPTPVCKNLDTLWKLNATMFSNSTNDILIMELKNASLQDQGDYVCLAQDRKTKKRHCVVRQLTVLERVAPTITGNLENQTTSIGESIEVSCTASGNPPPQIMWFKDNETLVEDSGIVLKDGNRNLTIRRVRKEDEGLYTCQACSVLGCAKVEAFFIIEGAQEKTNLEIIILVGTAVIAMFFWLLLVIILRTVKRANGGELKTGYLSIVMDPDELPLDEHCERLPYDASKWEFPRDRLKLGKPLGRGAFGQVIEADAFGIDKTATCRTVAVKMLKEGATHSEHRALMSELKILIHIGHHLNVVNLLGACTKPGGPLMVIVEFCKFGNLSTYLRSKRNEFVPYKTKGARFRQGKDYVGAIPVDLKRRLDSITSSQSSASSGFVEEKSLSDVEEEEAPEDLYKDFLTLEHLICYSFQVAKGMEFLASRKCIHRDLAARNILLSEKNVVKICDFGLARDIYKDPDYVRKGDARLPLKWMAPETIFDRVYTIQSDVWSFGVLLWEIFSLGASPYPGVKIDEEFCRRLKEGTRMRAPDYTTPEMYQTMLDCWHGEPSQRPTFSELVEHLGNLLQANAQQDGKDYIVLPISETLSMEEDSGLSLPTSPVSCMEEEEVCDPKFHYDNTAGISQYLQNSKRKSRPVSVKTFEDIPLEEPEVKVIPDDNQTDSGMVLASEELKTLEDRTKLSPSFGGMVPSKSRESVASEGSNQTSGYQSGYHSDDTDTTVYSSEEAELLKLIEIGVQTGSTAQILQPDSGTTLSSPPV

For `O=C(Nc1ccc(F)cc1)C1(C(=O)Nc2ccc(Oc3ccnc4cc(-c5cc6ccccn6n5)ccc34)cc2)CC1` [Compound 104, 1-N′-(4-Fluorophenyl)-1-N-[4-(7-pyrazolo[1,5-a]pyridin-2-ylquinolin-4-yl)oxyphenyl]cyclopropane-1,1-dicarboxamide], the IC50 lay in the range of 0.1 to 0.3 µM against Mer and 0.01 to 0.1 µM against KDR.
As for `O=C(Nc1ccc(F)cc1)C1(C(=O)Nc2ccc(Oc3ccnc4cc(-c5ccn(CF)n5)ccc34)cc2)CC1` [Compound 102, 1-N-[4-[7-[1-(Fluoromethyl)pyrazol-3-yl]quinolin-4-yl]oxyphenyl]-1-N′-(4-fluorophenyl)cyclopropane-1,1-dicarboxamide], the half-maximal inhibitory concentration (IC50) on Mer was 0.01 to 0.1 µM; at KDR, no more than 0.01 µM.
As for `Cc1cn(-c2ccc3c(Oc4ccc(NC(=O)C5(C(=O)Nc6ccc(F)cc6)CC5)cc4)ccnc3c2)cn1` [Compound 87, 1-N′-(4-Fluorophenyl)-1-N-[4-[7-(4-methylimidazol-1-yl)quinolin-4-yl]oxyphenyl]cyclopropane-1,1-dicarboxamide], the figures for the 50% inhibitory concentration (IC50) at Mer and against KDR were 0.01 to 0.1 µM and no more than 0.01 µM, respectively.
On to `Cc1cnn(-c2ccc3c(Oc4ccc(NC(=O)C5(C(=O)Nc6ccc(F)cc6)CC5)cc4)ccnc3c2)c1` [Compound 96, 1-N′-(4-Fluorophenyl)-1-N-[4-[7-(4-methylpyrazol-1-yl)quinolin-4-yl]oxyphenyl]cyclopropane-1,1-dicarboxamide], for which the IC50 on Mer and against KDR was 0.01 to 0.1 µM in each case.
Regarding `Nc1n[nH]cc1-c1ccc2c(Oc3ccc(NC(=O)C4(C(=O)Nc5ccc(F)cc5)CC4)cc3)ccnc2c1` [Compound 90, 1-N-[4-[7-(3-Amino-1H-pyrazol-4-yl)quinolin-4-yl]oxyphenyl]-1-N′-(4-fluorophenyl)cyclopropane-1,1-dicarboxamide], the IC50 on Mer and at KDR was 0.01 to 0.1 µM each time.
`Cc1cc2c(Oc3cc(F)c(NC(=O)C4(C(=O)Nc5ccc(F)cc5)CC4)cc3F)ccnc2cc1-c1cnn(C)c1` [Compound 105, 1-N′-[2,5-Difluoro-4-[6-methyl-7-(1-methylpyrazol-4-yl)quinolin-4-yl]oxyphenyl]-1-N-(4-fluorophenyl)cyclopropane-1,1-dicarboxamide]: the IC50 against Mer and against KDR was 0.01 to 0.1 µM each time.
Consider `O=C(Nc1ccc(F)cc1)C1(C(=O)Nc2ccc(Oc3ccnc4cc(-c5cnn(CF)c5)ccc34)cc2)CC1` [Compound 94, 1-N-[4-[7-[1-(Fluoromethyl)pyrazol-4-yl]quinolin-4-yl]oxyphenyl]-1-N′-(4-fluorophenyl)cyclopropane-1,1-dicarboxamide], for which the figures for the IC50 on Mer and against KDR were 0.01 to 0.1 µM and no more than 0.01 µM, respectively.
Taken in the same sequence, the figures for `CC(=O)N1CCC(c2ccc3c(Oc4ccc(NC(=O)C5(C(=O)Nc6ccc(F)cc6)CC5)cc4)ccnc3c2)C1` (stereo not drawn) [Compound 92, 1-N-[4-[7-(1-Acetylpyrrolidin-3-yl)quinolin-4-yl]oxyphenyl]-1-N′-(4-fluorophenyl)cyclopropane-1,1-dicarboxamide] were 0.01 to 0.1 µM and 0.1 to 0.3 µM.
The like results for `O=C(Nc1ccc(F)cc1)C1(C(=O)Nc2ccc(Oc3ccnc4cc(C5=CCOC5)ccc34)cc2)CC1` [Compound 95, 1-N-[4-[7-(2,5-Dihydrofuran-3-yl)quinolin-4-yl]oxyphenyl]-1-N′-(4-fluorophenyl)cyclopropane-1,1-dicarboxamide] were, in that order, 0.01 to 0.1 µM and no more than 0.01 µM.
The like results for `O=C(Nc1ccc(F)cc1)C1(C(=O)Nc2ccc(Oc3ccnc4cc(-c5ccccc5)ccc34)cc2)CC1` [Compound 55, 1-N′-(4-Fluorophenyl)-1-N-[4-(7-phenylquinolin-4-yl)oxyphenyl]cyclopropane-1,1-dicarboxamide] were, in that order, 0.1 to 0.3 µM and 0.01 to 0.1 µM.
As to `Cc1cc(-c2ccc3c(Oc4ccc(NC(=O)C5(C(=O)Nc6ccc(F)cc6)CC5)cc4)ccnc3c2)nn1C` [Compound 101, 1-N-[4-[7-(1,5-Dimethylpyrazol-3-yl)quinolin-4-yl]oxyphenyl]-1-N′-(4-fluorophenyl)cyclopropane-1,1-dicarboxamide], the concentration for half-maximal inhibition (IC50) against Mer and against KDR was 0.01 to 0.1 µM in each case.
For `CS(=O)(=O)N1CCC(c2ccc3c(Oc4ccc(NC(=O)C5(C(=O)Nc6ccc(F)cc6)CC5)cc4)ccnc3c2)C1` (stereo not drawn) [Compound 93, 1-N′-(4-Fluorophenyl)-1-N-[4-[7-(1-methylsulfonylpyrrolidin-3-yl)quinolin-4-yl]oxyphenyl]cyclopropane-1,1-dicarboxamide], the figures for the IC50 against Mer and on KDR were 0.1 to 0.3 µM and greater than 0.3 µM, respectively.
The like results for `Cc1cc2c(Oc3ccc(NC(=O)C4(C(=O)Nc5ccc(F)cc5)CC4)cc3)ccnc2cc1-c1ccn(C)n1` [Compound 108, 1-N′-(4-Fluorophenyl)-1-N-[4-[6-methyl-7-(1-methylpyrazol-3-yl)quinolin-4-yl]oxyphenyl]cyclopropane-1,1-dicarboxamide] were, in that order, 0.1 to 0.3 µM and 0.01 to 0.1 µM.
Take `Cc1ccn(-c2ccc3c(Oc4ccc(NC(=O)C5(C(=O)Nc6ccc(F)cc6)CC5)cc4)ccnc3c2)n1` [Compound 91, 1-N′-(4-Fluorophenyl)-1-N-[4-[7-(3-methylpyrazol-1-yl)quinolin-4-yl]oxyphenyl]cyclopropane-1,1-dicarboxamide]: the IC50 against Mer and against KDR was 0.1 to 0.3 µM throughout.
As for `Cc1cc2c(Oc3ccc(NC(=O)C4(C(=O)Nc5ccc(F)cc5)CC4)cc3)ccnc2cc1-c1cc[nH]n1` [Compound 107, 1-N′-(4-Fluorophenyl)-1-N-[4-[6-methyl-7-(1H-pyrazol-3-yl)quinolin-4-yl]oxyphenyl]cyclopropane-1,1-dicarboxamide], the half-inhibitory concentration (IC50) against Mer and on KDR was 0.01 to 0.1 µM each time.
On to `O=C(Nc1ccc(F)cc1)C1(C(=O)Nc2ccc(Oc3ccnc4cc(-c5ccn(C6CC6)n5)ccc34)cc2)CC1` [Compound 98, 1-N-[4-[7-(1-Cyclopropylpyrazol-3-yl)quinolin-4-yl]oxyphenyl]-1-N′-(4-fluorophenyl)cyclopropane-1,1-dicarboxamide], for which the figures for the half-inhibitory concentration (IC50) against Mer and on KDR were 0.1 to 0.3 µM and 0.01 to 0.1 µM, respectively.
As to `Nc1cc(-c2ccc3c(Oc4ccc(NC(=O)C5(C(=O)Nc6ccc(F)cc6)CC5)cc4)ccnc3c2)ccn1` [Compound 97, 1-N-[4-[7-(2-Aminopyridin-4-yl)quinolin-4-yl]oxyphenyl]-1-N′-(4-fluorophenyl)cyclopropane-1,1-dicarboxamide], the figures for the half-inhibitory concentration (IC50) on Mer and against KDR were no more than 0.01 µM and 0.01 to 0.1 µM, respectively.
Taken in the same sequence, the figures for `Cc1cc(-c2ccc3c(Oc4ccc(NC(=O)C5(C(=O)Nc6ccc(F)cc6)CC5)cc4)ccnc3c2)n[nH]1` [Compound 99, 1-N′-(4-Fluorophenyl)-1-N-[4-[7-(5-methyl-1H-pyrazol-3-yl)quinolin-4-yl]oxyphenyl]cyclopropane-1,1-dicarboxamide] were 0.01 to 0.1 µM and no more than 0.01 µM.
